Test results published in patent publication US20260199297A1, “FERROPTOSIS INDUCERS TO TREAT CANCER” (The University of Toledo, priority 2022, published 2026).
Read-outs that look alike come from different tables or passages of the source.

Assays:
[1] = system: NCI-H522 cells; test: Cytotoxicity (methylene blue cell viability), NCI-H522; format: cell-based, human; details: Homo sapiens
Method: (§1) Having synthesized the CETZOLE analogs, their cytotoxic activity was evaluated. […] NCI-H522 RV-GFP is the corresponding control with RV-GFP tag, but without SLC7A11 overexpression. […] The cytotoxicity screening was conducted as described previously.
(§2) Cell lines were cultured in a humidified atmosphere containing 10% CO2 in Dulbecco's modified Eagle's medium (Mediatech, Inc) supplemented with 10% fetal bovine serum (Atlanta Biologicals). Cell types used MEFs, HT1080 (human fibrosarcoma cells), NARF2 (osteosarcoma), WI-38 (human embryonic lung fibroblast), MDA MB 231 (breast cancer), HCT-116 (human colon), and NCI-H522 (Non-Small Cell Lung Cancer) cell lines. To determine viability throughout these examples, 5,000 cells were plated per well of a 96-well plate and drugs were added 1 day later. Cells were stained 1 to 3 days later with a saturated solution of methylene blue in 50% ethanol. Plates were rinsed and retained dye was quantified by spectrophotometry. Absorbance was normalized to DMSO and given as 1 or 100% for cell viability. Results are representative of at least two independent experiments. Statistical significance was assessed using the Student's t test. All commercially available chemicals were obtained from Cayman Chemicals unless otherwise noted.

[2] = system: HT-1080 cells; test: Cytotoxicity (methylene blue cell viability), HT-1080; format: cell-based, human; details: Homo sapiens
Method: as §1, §2

[3] = system: MDA-MB-231 cells; test: Cytotoxicity (methylene blue cell viability), MDA-MB-231; format: cell-based; details: Homo sapiens
Method: as §1, §2

[4] = system: NCI-H522 cells; format: cell-based; details: human, 3 days
Description: FIGS. 10A-10C: Results of live cell imaging.
FIG. 16: Evaluation of ferroptosis-inducing character of CETZOLE probes. A three-day ferroptosis rescue assay of NCI-H522 cells treated with DMSO, 1, RSL3, and CETZOLE analogs, and liproxstatin-1 co-treatment, showing significant ferroptosis inducing probes.
The live cell montage images in FIG. 10A show notable ferroptosis-related morphological changes, such as membrane breakage and floating cell debris in the medium. The NCI-H522 cell viability improved overall when cells were co-treated with the radical scavenger liproxstatin-1 (FIG. 10C). […] To confirm this, flow-cytometry was performed to quantify lipid peroxidation using redox-active BODIPY-C11 (FIGS. 11A-11E).
Overall, CETZOLE probes do induce radical-mediated cell death and are therefore indeed ferroptotic agents.
as §2, with “noted. Compound CETZOLE 1 and the analogs were synthesized as highlighted.” for “noted.”

[5] = system: HeLa cells; test: Cellular localization of probes by bio-imaging; format: cell-based; details: 37° C. one hour, TAMRA-PEG-3-azide click
Method: FIGS. 17A-17E: Cellular localization of CETZOLE probes. […] Cells were incubated with the respective agent, permeabilized, subjected to TAMRA-PEG3 azide ligation, and viewed under microscope.
The thiazole alkyne pharmacophore undergoes thiol addition. Therefore, PPd is believed to interact covalently with the target protein, and the propargyl alkyne serves as a clickable bio-orthogonal handle for attaching reporter tags. On the other hand, PPe has a photoactivatable benzophenone moiety that covalently binds to the target protein(s) upon photo irradiation. Bio-imaging experiments were conducted to determine the spatial localization of CETZOLE probes in HeLa cells using fluorescent reporter tags. For this, HeLa cells were incubated with probe PPd and the negative control NPd (FIG. 17A) at 37° C. for one-hour. The cells were washed with cold PBS, fixed with formaldehyde (5%), permeabilized with triton-X, and subjected to bioorthogonal click reaction with TAMRA-PEG-3-azide in the presence of tris-hydroxypropyltriazolylmethylanine (THPTA), copper (II) sulfate (CuSO4), and sodium ascorbate. After multiple washings, cells were transferred on to a microscope viewing slide, stained with Hoechst dye, and observed under Olympus microscope (FIGS. 17C-17E).

[6] = system: NCI-H522, HT-1080, and MDA-MB-231 cells; test: Cytotoxicity screening of CETZOLE probes and negative controls; format: cell-based; details: 20 μM maximum concentration
Description: The benzophenone bromo-alkane 28e was obtained by selective EDC coupling of diaminobenzophenone 31 with 4-pentynoic acid 32 to obtain amide 33, followed by dropwise addition of bromoacetyl bromide 30 to a solution of 33 and TEA in DCM. To obtain intermediate 28f, Boc-protection of methyl 2-amino-5-bromobenzoate 34 to get 35, followed by installing an azide group at the para position employing Markiewicz and Helquist conditions, gave the azide 36. This was subjected to saponification followed by EDC coupling with propargyl amine 38 to obtain 39. Boc deprotection to get 40 was followed by acylation of the resulting amine with bromoacetyl bromide 30 afforded the bromo alkane 28f. They were screened for activity on NCI-H522, HT-1080, and MDA-MB-231 cells prior to using in target identification.
A similar cytotoxicity trend was observed on HT-1080 and MDA-MB-231 cancer cell lines.
Cell lines were cultured in a humidified atmosphere containing 10% CO2 in Dulbecco's modified Eagle's medium (Mediatech, Inc) supplemented with 10% fetal bovine serum (Atlanta Biologicals). […] Plates were rinsed and retained dye was quantified by spectrophotometry. Absorbance was normalized to DMSO and given as 1 or 100% for cell viability. […] Statistical significance was assessed using the Student's t test. […]

[7] = system: NCI-H522 GFP-SLC7A11 #8 cells; test: Cytotoxicity (methylene blue cell viability), NCI-H522 clone overexpressing GFP-SLC7A11; format: cell-based, human; details: Homo sapiens; Table 1; NCI-H522 clone overexpressing GFP-tagged SLC7A11; read-out: Half maximal inhibitory concentration (IC50), NCI-H522 GFP-SCL7A11 #8
Method: as §1, §2

[8] = system: NCI-H522 RV-GFP cells; test: Cytotoxicity (methylene blue cell viability), NCI-H522 RV-GFP control clone; format: cell-based, human; details: Homo sapiens, NCI-H522; Table 1; control clone with RV-GFP tag; read-out: Half maximal inhibitory concentration (IC50), NCI-H522 Rv-GFP
Method: as §1, §2

[9] = system: NARF2 cells; test: Cytotoxicity (methylene blue cell viability), NARF2; format: cell-based, human; details: Homo sapiens; Table 1; NARF2 osteosarcoma cells; read-out: Half maximal inhibitory concentration (IC50), NARF2
Method: as §1, §2

[10] = system: WI38 cells; test: Cytotoxicity on normal cell line WI38; format: cell-based, human; details: Homo sapiens, WI-38; Table 2; lung tissue fibroblast; read-out: Half maximal inhibitory concentration (IC50), Normal Cell Line WI38
Method: (§3) To determine cytotoxicity at a therapeutically more relevant concentration, cells were treated at a single concentration of […] (FIG. 12).
as §2

[11] = system: MEFs (Mouse Embryonic Fibroblasts); test: Cytotoxicity on normal cell line MEFs; format: cell-based; details: Fibroblast; Table 2; Mouse Embryonic Fibroblasts; read-out: Half maximal inhibitory concentration (IC50), Normal Cell Line Mefs
Method: as §3, §2

[12] = system: NCI-H522 cells; test: Flow cytometry BODIPY-C11 lipid ROS measurement; format: cell-based, human
Method: The total cell counts are represented by the area under the graph.
NCI-H522 cells were seeded at 1.5×10^5 cells per 9-cm plate. The next media was replaced with fresh media before treated with drugs along with BODIPY581/591-C11 dye (0.5 μM) (Thermo Fisher). […], and resuspended in 2% FBS containing 1×PBS. Cells were analyzed in FITC channel using a BD LSR Fortessa FAC Scanner. Twenty thousand events per condition were analyzed from three independent samples. The experiments were performed twice, each time with triplicate samples (n=6). Collected data were processed with FlowJo v10 software. Lipid ROS measurement in TR9-7 or NARF2 cells was performed similarly at the indicated conditions as mentioned in the respective figure legends. Where appropriate, dead cells were excluded by gating. When gates were applied, they were identical across samples within an experiment.

[13] = system: NCI-H522 and HT-1080 cancer cell lines, WI38 and MEFs normal cell lines; test: Selective cytotoxicity assay at a single concentration; format: cell-based; design: dose or concentration left out as unconfirmed; details: NCI-H522, HT-1080, WI38, MEFs
Method: Overall, WI38 cells were the most tolerant to the treatment, whereas MEF cells were partially tolerant and relatively less sensitive than both NCI-H522 and HT-1080 cells. To determine cytotoxicity at a therapeutically more relevant concentration, cells were treated at a single concentration of […] (FIG. 12).
as §2, with “noted. Compound CETZOLE 1 and the analogs were synthesized as highlighted.” for “noted.”

[14] = system: 60 human cancer cell lines; test: NCI 60 human cancer cell line assay, single dose; format: cell-based; details: single dose of 10 μM, 60 cell lines
Method: (§4) The cell lines used in this assay belonged to leukemia, non-small-cell lung cancer, colon cancer, CNS cancer, melanoma, ovarian cancer, renal cancer, prostate cancer, and breast cancer. The compounds were first tested at a single dose of 10 μM.

[15] = system: renal cancer cell line UO-31; test: NCI 60 cell line assay, single dose, UO-31; format: cell-based, human; details: single dose of 10 μM
Method: (§5) The cell lines used in this assay belonged to leukemia, non-small-cell lung cancer, colon cancer, CNS cancer, melanoma, ovarian cancer, renal cancer, prostate cancer, and breast cancer. The compounds were first tested at a single dose of 10 μM. Analogue 20a was the most cytotoxic with a mean percentage growth of 1.24 (FIG. 13A). […] Analogs 20a and 23 were further tested in the NCI dose response assay ([…]).

[16] = system: renal cancer cell line 786-0; test: NCI 60 cell line assay, single dose, 786-0; format: cell-based, human; details: single dose of 10 μM
Method: as §5

[17] = system: ovarian cancer cell line IGROV1; test: NCI 60 cell line assay, single dose, IGROV1; format: cell-based, human; details: single dose of 10 μM
Method: as §5

[18] = system: leukemia, ovarian cancer, and renal cancer cell lines; test: NCI dose response assay; format: cell-based, human
Method: as §4

[19] = NCI-H522, Table 3, probes and negative controls, read-out: IC50, NCI-H522
[20] = HT-1080, Table 3, probes and negative controls, read-out: IC50, HT-1080
[21] = MDA-MB-231, Table 3, probes and negative controls, read-out: IC50, MDA-MB-231
[22] = NCI-H522, Table 2, read-out: Half maximal inhibitory concentration (IC50), Cancer Cell Line NCI-H522
[23] = Table 1, NCI-H522 cancer cell line, read-out: Half maximal inhibitory concentration (IC50), NCI-H522
[24] = HT-1080, Table 2, read-out: Half maximal inhibitory concentration (IC50), Cancer Cell Line HT1080
[25] = Table 1, HT-1080 fibrosarcoma cell line, read-out: Half maximal inhibitory concentration (IC50), HT-1080
[26] = Table 1, MDA-MB-231 breast cancer cell line, read-out: Half maximal inhibitory concentration (IC50), MDA-MB-231

Structure (SMILES)	IC50 [1, 19]	IC50 [2, 20]	IC50 [3, 21]	cell viability on liproxstatin-1 co-treatment (rescue) [4]	IC50 [1, 22]	IC50 [1, 23]	IC50 [7]	IC50 [8]	IC50 [2, 24]	IC50 [2, 25]	IC50 [9]	IC50 [3, 26]	IC50 [10]	IC50 [11]	cell death at a single concentration [13]	mean percentage growth [14]	further results
C#CCO/N=C1\CC(c2csc(C#C)n2)=C(C)C1O (centres unmarked) [PPd, 4-(2-Ethynylthiazol-4-yl)-2-hydroxy-3-methylcyclopent-3-en-1-one 0-prop-2-yn-1-yl oxime]	2310 ± 1080 nM	1170 ± 120 nM	2700 ± 720 nM	75%	–	–	–	–	–	–	–	–	–	–	–	–	spatial localization of probe [5]: intense intracellular aggregation of probe in the nucleus and vacuoles
C#Cc1nc(C2=C(C)C(=O)/C(=N/OCC(=O)Nc3ccc4oc(=O)c(C)cc4c3)C2)cs1 [PPc, (E)-2-(((4-(2-Ethynylthiazol-4-yl)-3-methyl-2-oxocyclopent-3-en-1-ylidene)amino)oxy)-N-(3-methyl-2-oxo-2H-chromen-6-yl)acetamide]	> 20000 nM	> 20000 nM	> 20000 nM	–	–	–	–	–	–	–	–	–	–	–	–	–	cytotoxicity at maximum concentration tested [6]: did not induce any cytotoxicity
C#Cc1nc(C2=C(C)/C(=N/OCc3ccccc3)CC2)cs1 [compound 23, (E)-3-(2-Ethynylthiazol-4-yl)-2-methylcyclopent-2-en-1-one O-benzyl oxime]	–	–	–	85%	1360 ± 110 nM	1360 ± 110 nM	2410 ± 1160 nM	2540 ± 440 nM	810 ± 140 nM	810 ± 140 nM	19300 ± 5900 nM	4170 ± 390 nM	2510 ± 810 nM	1090 ± 460 nM	did not induce cell death	27.24	speed of cell death (area under graph) ([12]; NCI-H522): induced slower cell death; lipid peroxidation compared to DMSO ([12]; NCI-H522, BODIPY-C11, 3 hours): induced lipid peroxidation
C#Cc1nc(C2=C(C)C(OC(C)=O)/C(=N/OC(C)=O)C2)cs1 (centres unmarked) [compound 20a, (E)-5-(Acetoxyimino)-3-(2-ethynylthiazol-4-yl)-2-methylcyclopent-2-en-1-yl acetate]	–	–	–	60%	170 ± 80 nM	170 ± 80 nM	1590 ± 490 nM	260 ± 110 nM	140 ± 60 nM	140 ± 60 nM	7260 ± 2010 nM	230 ± 20 nM	1530 ± 360 nM	120 ± 60 nM	killed only the cancer cell lines NCI-H522 and HT-1080	1.24	percentage growth, UO-31 [15]: −95%; percentage growth, 786-0 [16]: −95%; percentage growth, IGROV1 [17]: −95%; sensitivity of cell lines in dose response assay [18]: particularly sensitive
